Source: patent US20100056595A1, “Pyrazole Derivatives as P2X7 Modulators” (Glaxo Group Limited, priority 2007, published 2010)

What follows are molecules tested against T1, human P2X7 receptor (Homo sapiens, UniProt Q99572) (assay: Ethidium Accumulation Assay). Conditions: HEK293 cells expressing human recombinant P2X7 receptors; blocking ATP (1 mM) responses; read-out: pIC50 for human P2X7 receptor antagonist activity in the Ethidium Accumulation Assay (converted).
T1 construct: expressed in transfected cells; host or cells: HEK293
T1 sequence (Q99572 1-595): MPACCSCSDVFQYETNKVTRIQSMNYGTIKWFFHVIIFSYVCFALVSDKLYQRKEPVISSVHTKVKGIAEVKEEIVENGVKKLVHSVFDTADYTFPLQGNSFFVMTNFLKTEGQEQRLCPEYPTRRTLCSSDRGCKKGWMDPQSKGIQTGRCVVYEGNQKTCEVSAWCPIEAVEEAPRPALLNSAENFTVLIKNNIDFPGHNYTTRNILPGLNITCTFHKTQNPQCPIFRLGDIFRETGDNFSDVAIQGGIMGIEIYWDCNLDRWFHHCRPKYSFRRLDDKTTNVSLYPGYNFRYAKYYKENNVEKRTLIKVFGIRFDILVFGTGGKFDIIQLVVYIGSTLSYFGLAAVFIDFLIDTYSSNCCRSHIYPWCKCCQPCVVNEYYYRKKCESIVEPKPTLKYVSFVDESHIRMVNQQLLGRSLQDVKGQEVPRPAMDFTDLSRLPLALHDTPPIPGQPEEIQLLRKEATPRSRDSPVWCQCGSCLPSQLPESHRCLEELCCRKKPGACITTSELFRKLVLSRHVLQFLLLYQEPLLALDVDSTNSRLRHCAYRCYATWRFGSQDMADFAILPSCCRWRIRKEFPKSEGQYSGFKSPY
Format: cell-based
Description: Ethidium Accumulation Assay
Studies were performed using NaCl assay buffer of the following composition (in mM): 140 mM NaCl, HEPES 10, N-methyl-D-glucamine 5, KCl 5.6, D-glucose 10, CaCl2 0.5 (pH 7.4). HEK293 cells, expressing human recombinant P2X7 receptors, were grown in poly-L-lysine pretreated 96 well plates for 18-24 h. […] The cells were washed twice with 350 μl of assay buffer before addition of 50 μl of antagonist. The cells were then incubated at room temperature (19-21° C.) for 30 min before addition of ATP and ethidium (100 μM final assay concentration). The ATP concentration was chosen to be close to the EC80 for the receptor type and was 1 mM for studies on the human P2X7 receptor. Incubations were continued for 8 or 16 min and were terminated by addition of 25 μl of 1.3M sucrose containing 5 mM of the P2X7 receptor antagonist reactive black 5 (Aldrich). Cellular accumulation of ethidium was determined by measuring fluorescence (excitation wavelength of 530nm and emission wavelength of 620 nm) from below the plate with a Canberra Packard Fluorocount (Pangbourne, UK). Antagonist pIC50 values for blocking ATP responses were determined using iterative curve fitting techniques.

IC50, ≤ 100 nM:
Cc1cnn(C)c1CC(=O)NCc1cccc(C(F)(F)F)c1Cl [Example 2, N-{[2-chloro-3-(trifluoromethyl)phenyl]methyl}-2-(1,4-dimethyl-1H-pyrazol-5-yl)acetamide]
Cc1cnn(CC(F)(F)F)c1CC(=O)NCc1ccc(F)c(F)c1Cl [Example 3, N-[(2-chloro-3,4-difluorophenyl)methyl]-2-[4-methyl-1-(2,2,2-trifluoroethyl)-1H-pyrazol-5-yl]acetamide]
Cc1cnn(C)c1CC(=O)NCc1ccc(F)c(F)c1Cl [Example 4, N-[(2-chloro-3,4-difluorophenyl)methyl]-2-(1,4-dimethyl-1H-pyrazol-5-yl)acetamide]
Cn1nccc1CC(=O)NCc1cccc(C(F)(F)F)c1Cl [Example 5, N-{[2-chloro-3-(trifluoromethyl)phenyl]methyl}-2-(1-methyl-1H-pyrazol-5-yl)acetamide]
Cn1ncc(Cl)c1CC(=O)NCc1cccc(C(F)(F)F)c1Cl [Example 6, 2-(4-chloro-1-methyl-1H-pyrazol-5-yl)-N-{[2-chloro-3-(trifluoromethyl)phenyl]methyl}acetamide]
Cn1ncc(Br)c1CC(=O)NCc1cccc(C(F)(F)F)c1Cl [Example 7, 2-(4-Bromo-1-methyl-1H-pyrazol-5-yl)-N-{[2-chloro-3-(trifluoromethyl)phenyl]methyl}acetamide]
Cn1ncc(F)c1CC(=O)NCc1cccc(C(F)(F)F)c1Cl [Example 8, N-{[2-chloro-3-(trifluoromethyl)phenyl]methyl}-2-(4-fluoro-1-methyl-1H-pyrazol-5-yl)acetamide]
Cc1cnn(C)c1CC(=O)NCc1ccc(Cl)cc1Cl [Example 10]
Cn1ncc(Cl)c1CC(=O)NCc1ccc(F)cc1Cl [Example 14, N-[(2-Chloro-4-fluorophenyl)methyl]-2-(4-chloro-1-methyl-1H-pyrazol-5-yl)acetamide]
Cn1ncc(Cl)c1CC(=O)NCc1ccc(F)c(F)c1Cl [Example 15, N-[(2-Chloro-3,4-difluorophenyl)methyl]-2-(4-chloro-1-methyl-1H-pyrazol-5-yl)acetamide]
Cn1ncc(Cl)c1CC(=O)NCc1ccc(Cl)cc1Cl [Example 16, 2-(4-Chloro-1-methyl-1H-pyrazol-5-yl)-N-[(2,4-dichlorophenyl)methyl]acetamide]
Cn1ncc(F)c1CC(=O)NCc1ccc(F)c(F)c1Cl [Example 18, N-[(2-Chloro-3,4-difluorophenyl)methyl]-2-(4-fluoro-1-methyl-1H-pyrazol-5-yl)acetamide]
Cn1ncc(F)c1CC(=O)NCc1ccc(Cl)cc1Cl [Example 19, N-[(2,4-Dichlorophenyl)methyl]-2-(4-fluoro-1-methyl-1H-pyrazol-5-yl)acetamide]
Cn1ncc(I)c1CC(=O)NCc1ccc(Cl)cc1Cl [Example 20, N-[(2,4-Dichlorophenyl)methyl]-2-(4-iodo-1-methyl-1H-pyrazol-5-yl)acetamide]
